Where no end group is shown, it is not given here.
Columns and labels:
[1] = tested on: Staphylococcus aureus NBRC 13276; test: Antibacterial activity, liquid growth inhibition assay; type: cell-based; settings: S. aureus NBRC 13276, LB medium, overnight 37 °C, A595; MIC as interval [a]–[b]; at least three experiments in duplicate
Procedure: (§1) Antibacterial activity was measured using the Gram-negative bacteria Escherichia coli NBRC 3972 and the Gram-positive bacteria Staphylococcus aureus NBRC 13276 and Bacillus subtilis NBRC 3009 (NITE Biological Resource Center, Chiba, Japan), using a liquid growth inhibition assay. Each bacteria strain was grown in a liquid LB medium (1% tryptone, 0.5% yeast extract, and 1% NaCl). Aliquots of each sample (10 µL) were incubated with 90 µL of a suspension of a mid-logarithmic phase culture of bacteria in a 96-well plate at a starting absorbance of A595 = 0.001 in the LB medium; the incubation occurred overnight at 37 °C with continuous shaking. Growth inhibition was monitored by measuring the absorbance at 595 nm using a Benchmark microplate reader (Bio-Rad, Hercules, CA, USA). Experiments were repeated at least three times, each time in duplicate. Minimal inhibitory concentrations (MICs) are expressed as the interval of concentrations [a]–[b], where [a] is the highest concentration at which bacteria still grow and [b] is the lowest concentration causing growth inhibition.

[2] = tested on: Escherichia coli NBRC 3972; test: as above; type: cell-based; settings: E. coli NBRC 3972, LB medium, overnight 37 °C, A595; MIC as interval [a]–[b]; at least three experiments in duplicate
Procedure: as §1

[3] = tested on: Bacillus subtilis NBRC 3009; test: as above; type: cell-based; settings: B. subtilis NBRC 3009, LB medium, overnight 37 °C, A595; MIC as interval [a]–[b]; at least three experiments in duplicate
Procedure: as §1

[4] = tested on: sheep red blood cells (sRBCs); test: Hemolytic activity; type: cell-based; settings: sheep RBC 4% (v/v) in PBS pH 7.2, 1 h 37 °C, absorbance 450 nm; 3 experiments in triplicate; read-out: Hemolysis EC50
Procedure: Fresh sheep red blood cells (sRBCs) were washed three times with PBS (35 mM phosphate buffer and 150 mM NaCl, pH 7.2) through centrifugation at 2000× g for 5 min and resuspended in PBS. Specifically, aliquots of each sample in PBS (50 μL) were added to 50 μL of sRBC suspension [4% (v/v) in the final] in a microtube and incubated for 1 h at 37 °C; then, the samples were centrifuged at 2000× g for 5 min. The supernatant was transferred to a 96-well plate to monitor hemoglobin release, which was done by measuring the absorbance of the supernatant at 450 nm using a Benchmark microplate reader. PBS and 0.1% Triton X-100 were used as the negative and positive controls, respectively. The experiments were repeated 3 times, each time in triplicate. In the equation to calculate the hemolysis rate, AP refers to peptide sample absorbance, AT refers to 0.1% Triton X-100 positive control absorbance, and A0 refers to PBS sample negative control absorbance. Hemolysis rate (%)=Ap−A0/AT−A0×100

[5] = Secondary structure estimation by CD spectroscopy (DichroWeb); type: physicochemical; settings: 25 °C, DichroWeb CDSSTR, reference dataset 4
Procedure: CD spectra were recorded on a J-820 spectropolarimeter (Jasco, Tokyo, Japan). The spectra were measured between 190–260 nm (in 0.2-nm steps) at 25 °C with a 1-mm-pathlength cell. Samples were dissolved in a 0.2 M phosphate buffer (pH 7.0) or 50% TFE in a 0.2 M phosphate buffer (pH 7.0) at a concentration of 10 µM. Five scans were averaged for each sample. The percentages of secondary structures were estimated from the spectra using the DichroWeb server. The helical wheel projection was performed using the online software HeliQuest (https://heliquest.ipmc.cnrs.fr, accessed on 14 July 2022).

[6] = tested on: crickets (Acheta domesticus); test: Insect toxicity (paralysis after injection); type: in vivo; settings: injection into abdominal region, paralysis counted 30 min after injection, 10 insects per measurement, parentheses = 95% confidence intervals
Procedure: Insect toxicity was tested on crickets (Acheta domesticus, 50 ± 5 mg body weight) by injecting 1–2 µL of each sample dissolved in distilled water into their abdominal region. Distilled water was injected as a control. For each measurement, 10 insects were used, and the number of paralyzed insects was counted 30 min after injection. The doses required to induce paralysis in half of the test animals (PD50) were determined using the statistical software PRISM (GraphPad Software, La Jolla, CA, USA).

[7] = solvent I: 0.2 M phosphate buffer pH 7.0, 10 µM
[8] = solvent II: 50% TFE in 0.2 M phosphate buffer pH 7.0, 10 µM

Substance | Antibacterial Activity MIC, S. aureus [1] | Antibacterial Activity MIC, E. coli [2] | Antibacterial Activity MIC, B. subtilis [3] | EC50 [4] | Percentage of Secondary Structure, Turns [5, 7] | Percentage of Secondary Structure, Unordered [5, 7] | Percentage of Secondary Structure, α-Helix [5, 7] | Percentage of Secondary Structure, β-Sheet [5, 7] | Percentage of Secondary Structure, Turns [5, 8] | Percentage of Secondary Structure, Unordered [5, 8] | Percentage of Secondary Structure, α-Helix [5, 8] | Percentage of Secondary Structure, β-Sheet [5, 8] | Insect Toxicity PD50 [6]
AGLGKIGAFIKKAYAIYKAKAA-NH2 [M-lycotoxin-Lp5a] | 50 to 100 µM | 1.25 to 2.5 µM | 1.25 to 2.5 µM | > 100 µM | 28% | 33% | 15% | 23% | 10% | 18% | 55% | 17% | 50 (18.3–138) µg/g Weight
AGLGKIGALIKKAYAIYKAKAA-NH2 [M-lycotoxin-Lp5b] | 50 to 100 µM | 1.25 to 2.5 µM | 1.25 to 2.5 µM | > 100 µM | 25% | 34% | 7% | 33% | 11% | 23% | 51% | 14% | 44 (12.2–160) µg/g Weight
IWLTALKFIGKNLGKHFAKQQLSKL-NH2 [M-lycotoxin-Lp3a] | 0.4 to 0.8 µM | 0.8 to 1.6 µM | 0.8 to 1.6 µM | > 100 µM |  |  |  |  |  |  |  |  | 
KIKWFKAMKSIAKYVAKKQLKKHLGGEN [M-lycotoxin-Lp4] |  |  |  |  | 26% | 33% | 8% | 33% | 13% | 23% | 51% | 11% | 10 (5.8–17.1) µg/g Weight
MVWLLPLKFLASHVAMEQLSKLGSKIATKL-NH2 [M-lycotoxin-Lp1a] | 12.5 to 25 µM | 6.2 to 12.5 µM | 12.5 to 25 µM | > 100 µM |  |  |  |  |  |  |  |  | 
SKWKAFLAKMKEIASEAL-NH2 [M-lycotoxin-Lp6] | >100 µM | 5 to 12.5 µM | 5 to 12.5 µM | > 100 µM |  |  |  |  |  |  |  |  | 
VIWLPALKFLASHIAMEQLSKL-NH2 [M-lycotoxin-Lp1b] | 3.1 to 6.2 µM | 50 to 100 µM | 6.2 to 12.5 µM | > 100 µM |  |  |  |  |  |  |  |  | 
